# Test results taken from patent publication US9387246B2, “Treatment methods for rheumatoid arthritis” (priority 2013, dated 2016).
# B1: Certolizumab pegol (antibody, chains of the INN, looked up, V domains shown)
# VH: EVQLVESGGGLVQPGGSLRLSCAASGYVFTDYGMNWVRQAPGKGLEWMGWINTYIGEPIYADSVKGRFTFSLDTSKSTAYLQMNSLRAEDTAVYYCARGYRSYAMDYWGQGTLVTVSS
# VL: DIQMTQSPSSLSASVGDRVTITCKASQNVGTNVAWYQQKPGKAPKALIYSASFLYSGVPYRFSGSGSGTDFTLTISSLQPEDFATYYCQQYNIYPLTFGQGTKVEIK
# modifications: Fab' PEG
# B2: TNF (CIMZIA) (antibody, chains of the INN, looked up, V domains shown)
# VH: B1 VH
# VL: B1 VL
# modifications: Fab' PEG
# Columns and labels:
# TNFR1 = test system: TNFR1; set-up: key: Y: biomarkers that are known to be positively affected by a treatment method (i.e., biomarkers that are known to have a favorable response to a treatment method); N: biomarkers that are not known to be positively affected by a treatment method (i.e., biomarkers that are known to have an unfavorable response to a treatment method); biomarkers that are known to be positively affected by a ORENCIA, the brand name of Atabacept; details: literature 1990-2012, ACR abstracts 2006-2013; cited from earlier work
# VCAM-1 = details: literature 1990-2012, ACR abstracts 2006-2013; cited from earlier work
# MMP-1 = details: literature 1990-2012, ACR abstracts 2006-2013; cited from earlier work
# [1] = test system: Rheumatoid arthritis patients; assay type: in vivo, human; details: for Treatment effectiveness (reason for discontinuation / earlier trial): patient 16, January 2014
# Source text: A treatment method administered to a patient may be a combination of one or more treatment methods.
# Resistin = details: literature 1990-2012, ACR abstracts 2006-2013; cited from earlier work
# IL-6 = details: literature 1990-2012, ACR abstracts 2006-2013; cited from earlier work
# MMP-3 = details: literature 1990-2012, ACR abstracts 2006-2013; cited from earlier work
# [2] = test system: Rheumatoid arthritis patients; test: Change in VECTRA DA Score after treatment, longer duration (Example 3); assay type: in vivo, human; details: Patient 6, March 2012
# Description: Sixteen rheumatoid arthritis patients were selected for treatment by treatment methods that were selected using the algorithm disclosed herein. Some patients were the same as the patients discussed under Example 2. Example 3, however, tracks patients' responses to treatment for a longer duration and uses VECTRA DA Score to determine effectiveness of the treatment.
# VECTRA® DA test was conducted for each patient to determine serum levels of the all the biomarkers and VECTRA DA Score in each patient before treatment. The collection of patients closely resembles the random patient population available nationwide as shown by a comparison of the distribution of VECTRA DA Scores in FIG. 6, as noted under Example 2.
# The patients were treated with the selected treatment methods and the post-treatment biomarker levels and VECTRA DA Score were determined by VECTRA® DA test. The change is VECTRA DA Score was determined to determine the change in disease activity and effectiveness of the selected treatment method.
# The treatment method (one method or a combination of methods) was determined to be effective when the post-treatment disease activity was lower than the pre-treatment disease activity in the patient: when VECTRA DA Score was lower than the pre-treatment VECTRA DA Score. Specifically, the treatment method was determined to be effective when the post-treatment disease activity was at least 20% lower than the pre-treatment disease activity, or when the VECTRA DA Score is decreased to a lower disease activity level after the treatment (i.e., from high to moderate, or high to low, or moderate to low).
# [3] = test system: Rheumatoid arthritis patients; test: Treatment outcome (effectiveness, clinical course) of treatment methods (Example 2); assay type: in vivo, human
# Description: The patients were treated with the selected treatment methods for at least five months and the post-treatment biomarker levels and VECTRA DA Score were determined by VECTRA® DA test along with CRP level and ESR. The change is VECTRA DA Score, CRP level and ESR was determined to determine the change in disease activity and effectiveness of the selected treatment method.
# SAA = details: literature 1990-2012, ACR abstracts 2006-2013; cited from earlier work
# [4] = test system: Rheumatoid arthritis patients; test: VECTRA DA test: serum levels of biomarkers, % elevation over control (InFoRM study); assay type: in vivo, human; details: Patient 6, March 2012
# Source text: VECTRA® DA test is a multi-biomarker disease activity (MBDA) blood test sold by Crescendo Bioscience. The test provides a quantitative assessment of rheumatoid arthritis disease activity in patients by using twelve protein biomarkers—Vascular Cell Adhesion Molecule 1 (VCAM-1), Epidermal Growth Factor (EGF), Vascular Endothelial Growth Factor A (VEGF-A), Interleukin-6 (IL-6), Tumor Necrosis Factor Receptor Type 1 (TNFR1), Matrix Metalloproteinase-1 (MMP-1), Matrix Metalloproteinase-3 (MMP-3), YKL-40, Leptin, Resistin, Serum Amyloid A (SAA), and C-Reactive Protein (CRP). The twelve biomarkers in VECTRA® DA test are relevant to key aspects of the pathophysiology of RA. Li et al., Curr. Med. Res. & Opin. 29(1): 85-92 (2013). The test measures the concentrations of the biomarkers and provides the concentrations and percentile (RA percentile) value for each biomarker.
# The VECTRA DA MBDA test uses Meso Scale Discovery (MSD, Gaithersburg, Md., USA) sandwich immunoassay electrochemiluminescent technology to measure biomarker levels. Eastman et al., J. of Pharmaceutical and Biomedical Analysis 70: 415-424 (2012). In the immunoassay, capture antibodies are spotted on carbon electrodes in a planar array and detection antibodies are labeled with an electrochemiluminescent ruthenium reporter. Id. Upon electrical stimulation, light is produced from reporter molecules bound to the electrode to determine biomarker concentration.
# VEGF-A = details: literature 1990-2012, ACR abstracts 2006-2013; cited from earlier work
# YKL-40 = details: literature 1990-2012, ACR abstracts 2006-2013; cited from earlier work
# CRP = details: literature 1990-2012, ACR abstracts 2006-2013; cited from earlier work
# Leptin = details: literature; Leptin usable as biomarker only in patients with 15% or less body fat; cited from earlier work
# [5] = Patient 6, outcome not reflected by change in any of the three disease markers, earlier treatments not algorithm-selected
Molecule,TNFR1 positively affected by treatment method (TNFR1),VCAM-1 positively affected by treatment method (VCAM-1),MMP-1 positively affected by treatment method (MMP-1),Resistin positively affected by treatment method (Resistin),IL-6 positively affected by treatment method (IL-6),MMP-3 positively affected by treatment method (MMP-3),"Treatment Outcome [3, 5]",SAA positively affected by treatment method (SAA),YKL-40 positively affected by treatment method (YKL-40),CRP positively affected by treatment method (CRP),other results
"Cc1oncc1C(=O)Nc1ccc(C(F)(F)F)cc1 [ARA, Leflunomide]",Y,Y,Y,N,Y,Y,(after failing,Y,,,Patient could tolerate the drug in the past ([1]; in vivo): Patient could not; Toxicity for which the treatment was discontinued ([1]; in vivo): to bone marrow; WBC count relative to normal (reason for discontinuation) ([1]; in vivo): due to below; Arthritis activity class of VECTRA DA Score [2]: high (a VECTRA DA Score of >44 reflects high disease activity); VECTRA DA Score [2]: 74; CRP elevated level [4]: 93%; IL-6 elevated level [4]: 98%; Leptin elevated level [4]: 90%; MMP-1 elevated level [4]: 40%; MMP-3 elevated level [4]: 91%; Resistin elevated level [4]: 63%; SAA elevated level [4]: 97%; TNF-R1 elevated level [4]: 73%; VCAM-1 elevated level [4]: 85%; VEGF-A elevated level [4]: 84%; YKL-40 elevated level [4]: 41%
"Cn1cnc([N+](=O)[O-])c1Sc1ncnc2nc[nH]c12 [Azathioprine (AZA), Azathioprine]",,,,,,,(after failing,,,,"Treatment effectiveness (reason for discontinuation / earlier trial) [1]: to inefficacy; Treatment Outcome ([3]; Patient 16, AZA from March 2012, triple therapy with CIMZIA from May 2012, based on VECTRA DA score): Not effective"
"CCN(CCO)CCCC(C)Nc1ccnc2cc(Cl)ccc12 (stereo not shown) [P, Hydroxychloroquine]",N,N,N,N,Y,N,,Y,N,Y,VEGF-A positively affected by treatment method (VEGF-A): N
"O=C(O)c1cc(/N=N/c2ccc(S(=O)(=O)Nc3ccccn3)cc2)ccc1O [S, Sulfasalazine]",Y,,,N,Y,Y,,Y,N,Y,Leptin positively affected by treatment method (Leptin): N; VEGF-A positively affected by treatment method (VEGF-A): Y
"C[C@@H]1CCN(C(=O)CC#N)C[C@@H]1N(C)c1ncnc2[nH]ccc12 [TOFAC, Tofacitinib]",,,Y,,Y,Y,,,,,"Tapering of oral steroid, Prednisone ([1]; patient 16, XELJANZ 5 mg twice a day added March 2014): XELJANZ allowed"
Rituximab,,N,N,N,Y,N,,N,N,Y,Leptin positively affected by treatment method (Leptin): N
B1,,,,,,,(after failing,,,,
B2,,,,,,,,,,,Treatment effectiveness (reason for discontinuation / earlier trial) [1]: without success
